# Measured values from patent US9061030B2, “sGC stimulators” (IRONWOOD PHARMACEUTICALS, INC., priority 2010, dated 2015).
# Molecular target: T1, soluble guanylate cyclase (sGC) (Homo sapiens, UniProt Q02108+Q02153)
# T1 construct: endogenously expressing soluble guanylate cyclase (sGC); endogenous in cells; host or cells: HEK293
# T1 sequence (Q02153 1-619): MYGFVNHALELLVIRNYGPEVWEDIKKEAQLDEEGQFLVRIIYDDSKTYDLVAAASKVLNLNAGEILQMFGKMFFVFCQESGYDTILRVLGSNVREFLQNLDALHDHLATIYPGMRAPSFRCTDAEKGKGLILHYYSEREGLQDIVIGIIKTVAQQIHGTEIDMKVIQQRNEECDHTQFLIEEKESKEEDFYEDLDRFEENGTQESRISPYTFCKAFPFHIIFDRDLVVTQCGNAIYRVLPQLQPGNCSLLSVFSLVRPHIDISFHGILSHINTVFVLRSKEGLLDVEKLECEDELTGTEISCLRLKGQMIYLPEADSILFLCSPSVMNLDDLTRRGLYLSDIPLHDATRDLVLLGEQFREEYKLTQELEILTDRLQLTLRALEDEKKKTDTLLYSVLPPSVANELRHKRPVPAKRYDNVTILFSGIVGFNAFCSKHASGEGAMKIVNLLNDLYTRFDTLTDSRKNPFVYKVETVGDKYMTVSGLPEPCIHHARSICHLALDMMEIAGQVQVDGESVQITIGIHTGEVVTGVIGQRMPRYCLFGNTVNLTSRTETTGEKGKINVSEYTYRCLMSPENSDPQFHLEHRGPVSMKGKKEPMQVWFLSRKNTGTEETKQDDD
# T1 sequence (Q02108 1-690): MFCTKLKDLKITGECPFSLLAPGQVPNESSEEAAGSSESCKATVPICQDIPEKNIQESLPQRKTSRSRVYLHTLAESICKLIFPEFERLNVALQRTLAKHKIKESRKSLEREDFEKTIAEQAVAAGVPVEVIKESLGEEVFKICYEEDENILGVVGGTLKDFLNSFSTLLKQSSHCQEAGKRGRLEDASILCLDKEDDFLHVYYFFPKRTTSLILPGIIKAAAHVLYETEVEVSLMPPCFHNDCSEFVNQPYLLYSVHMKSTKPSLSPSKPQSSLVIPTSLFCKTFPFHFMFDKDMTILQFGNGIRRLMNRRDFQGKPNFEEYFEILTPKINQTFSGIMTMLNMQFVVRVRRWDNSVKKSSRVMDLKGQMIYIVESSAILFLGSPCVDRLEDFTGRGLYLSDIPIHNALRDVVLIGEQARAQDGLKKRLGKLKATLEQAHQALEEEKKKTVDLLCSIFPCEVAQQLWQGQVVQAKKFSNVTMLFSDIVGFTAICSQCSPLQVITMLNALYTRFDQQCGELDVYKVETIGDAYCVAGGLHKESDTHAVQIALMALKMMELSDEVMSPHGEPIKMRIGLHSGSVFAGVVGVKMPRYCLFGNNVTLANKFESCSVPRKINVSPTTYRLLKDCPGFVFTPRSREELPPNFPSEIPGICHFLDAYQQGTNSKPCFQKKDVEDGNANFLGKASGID
# Assay: sGC-HEK-cGMP assay
# Format: cell-based
# Details: HEK293 cells, 10 μM SNP, percentage of sGC activity obtained with positive control BAY 41-2272 (= 100%); for Emax at 10 µM: compound at 10 μM; for Emax at 30 µM: compound at 30 μM
# Method in brief: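 HEK293 cells endogenously expressing sGC, preincubated 15 min at 37 °C with 0.5 mM IBMX, then exposed to compound plus 10 μM sodium nitroprusside for 10 min at 37 °C. Reaction stopped and cells lysed with 0.1 M HCl; cGMP quantified by LC/MS against a standard curve; EC50 from concentration-response curves.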
Emax at 10 µM [%],Emax at 30 µM [%],Compound
40 to 60,60 to 80,Fc1ccccc1Cn1nc(-c2nccs2)nc1-c1cscn1 [Compound I-41]
40 to 60,60 to 80,Nc1ccnc(-c2nc(-c3nccs3)n(Cc3ccccc3F)n2)c1 [Compound I-44]
20 to 40,20 to 40,Fc1ccccc1Cn1nc(-c2ncccn2)nc1-c1cocn1 [Compound I-46]
40 to 60,60 to 80,"Nc1ccnc(-c2nc(-c3nccs3)n(Cc3ccccc3F)n2)n1 [Compound I-48, 2-(1-(2-fluorobenzyl)-5-(thiazol-2-yl)-1H-1,2,4-triazol-3-yl)pyrimidin-4-amine]"
20 to 40,20 to 40,"Fc1ccccc1Cn1nc(-c2ccccn2)nc1-n1cncn1 [Compound I-50, 2′-(2-fluorobenzyl)-5′-(pyridin-2-yl)-2′H-1,3′-bi(1′,2′,4-triazole)]"
40 to 60,60 to 80,"Nc1ccnc(-c2nc(-c3cscn3)n(Cc3ccccc3F)n2)c1 [Compound I-53, 2-(1-(2-fluorobenzyl)-5-(thiazol-4-yl)-1H-1,2,4-triazol-3-yl)pyridin-4-amine]"
20 to 40,40 to 60,"COC(=O)N(C)c1c(N)nc(-c2nc(-c3nccs3)n(Cc3ccccc3F)n2)nc1N [Compound I-61, methyl 4,6-diamino-2-(1-(2-fluorobenzyl)-5-(thiazol-2-yl)-1H-1,2,4-triazol-3-yl)pyrimidin-5-yl(methyl)carbamate]"

# Further lines, the compound ahead of its results:
Compound,Emax at 10 µM [%],Emax at 30 µM [%]
Fc1ccccc1Cn1nc(-c2ccccn2)nc1-c1ccccn1 [Compound I-1],5 to 10,20 to 40
Fc1ccccc1Cn1nc(-c2ncccn2)nc1-c1cscn1 [Compound I-3],0 to 5,20 to 40
Fc1ccccc1Cn1nc(-c2ccccn2)nc1-c1cscn1 [Compound I-4],20 to 40,40 to 60
Fc1ccccc1Cn1nc(-c2ccccn2)nc1-c1ncco1 [Compound I-6],20 to 40,20 to 40
"Fc1ccccc1Cn1nc(-c2ccccn2)nc1-c1cocn1 [Compound I-12, 4-(1-(2-fluorobenzyl)-3-(pyridin-2-yl)-1H-1,2,4-triazol-5-yl)oxazole]",20 to 40,40 to 60
Fc1ccccc1Cn1nc(-c2ccccn2)nc1-c1nccs1 [Compound I-25],20 to 40,40 to 60
Fc1ccccc1Cn1nc(-c2ncccn2)nc1-c1nccs1 [Compound I-30],10 to 20,20 to 40
Fc1ccc(-c2nc(-c3nccs3)n(Cc3ccccc3F)n2)nc1 [Compound I-38],40 to 60,20 to 40
Fc1ccccc1Cn1nc(-c2cscn2)nc1-c1nccs1 [Compound I-40],20 to 40,10 to 20
